We go through 28 compounds from patent US9012443B2 (Amgen Inc., priority 2011, dated 2015).

In one data set the target is Nav 1.5 (Homo sapiens (Human), UniProt Q14524). As to the kind of experiment: Nav 1.5 in vitro PX assay (PatchXpress whole cell voltage clamp). Conditions: 293 cells stably transfected with Nav 1.5; second part of table; read-out: Nav1.5 PX IC50. The data set is classed as cell-based. The procedure: Nav 1.5 In Vitro PX Assay
293 cells stably transfected with Nav 1.5 were recorded in whole cell voltage clamp mode with the PatchXpress automated electrophysiology system according the manufacturer's specifications (Molecular Devices, LLC, Sunnyvale, Calif.). Cells were held at a holding potential of −50 mV to inactivate sodium channels. To elicit sodium currents the voltage was changed to −120 mV to recover a portion of the channels, followed by delivery of test pulses of 20 msec duration to 0 mV, at 0.1 Hz. A single concentration of test compound was applied to cells for a duration of 5 minutes. Peak sodium current was measured at the end of the compound addition period to determine percent inhibition. A minimum of two cells were tested per concentration. IC50 curves were fitted to percent inhibition as a function of concentration.

The target in another data set is Nav 1.7 (Homo sapiens (Human), UniProt Q15858). As to the kind of experiment: Nav 1.7 in vitro PX assay (PatchXpress whole cell voltage clamp). The data set is classed as cell-based. Conditions: 293 cells, human Nav1.7, partially inactivated state; read-out: Nav1.7 PX IC50 IP. The essentials:
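HEK293 cells stably expressing human Nav1.7, whole-cell voltage clamp on PatchXpress, held at potential giving 20–50% inactivation; current elicited by 20 msec pulse to −10 mV.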

Some results are limits rather than exact numbers.

Nav 1.5, sequence (Q14524 whole entry): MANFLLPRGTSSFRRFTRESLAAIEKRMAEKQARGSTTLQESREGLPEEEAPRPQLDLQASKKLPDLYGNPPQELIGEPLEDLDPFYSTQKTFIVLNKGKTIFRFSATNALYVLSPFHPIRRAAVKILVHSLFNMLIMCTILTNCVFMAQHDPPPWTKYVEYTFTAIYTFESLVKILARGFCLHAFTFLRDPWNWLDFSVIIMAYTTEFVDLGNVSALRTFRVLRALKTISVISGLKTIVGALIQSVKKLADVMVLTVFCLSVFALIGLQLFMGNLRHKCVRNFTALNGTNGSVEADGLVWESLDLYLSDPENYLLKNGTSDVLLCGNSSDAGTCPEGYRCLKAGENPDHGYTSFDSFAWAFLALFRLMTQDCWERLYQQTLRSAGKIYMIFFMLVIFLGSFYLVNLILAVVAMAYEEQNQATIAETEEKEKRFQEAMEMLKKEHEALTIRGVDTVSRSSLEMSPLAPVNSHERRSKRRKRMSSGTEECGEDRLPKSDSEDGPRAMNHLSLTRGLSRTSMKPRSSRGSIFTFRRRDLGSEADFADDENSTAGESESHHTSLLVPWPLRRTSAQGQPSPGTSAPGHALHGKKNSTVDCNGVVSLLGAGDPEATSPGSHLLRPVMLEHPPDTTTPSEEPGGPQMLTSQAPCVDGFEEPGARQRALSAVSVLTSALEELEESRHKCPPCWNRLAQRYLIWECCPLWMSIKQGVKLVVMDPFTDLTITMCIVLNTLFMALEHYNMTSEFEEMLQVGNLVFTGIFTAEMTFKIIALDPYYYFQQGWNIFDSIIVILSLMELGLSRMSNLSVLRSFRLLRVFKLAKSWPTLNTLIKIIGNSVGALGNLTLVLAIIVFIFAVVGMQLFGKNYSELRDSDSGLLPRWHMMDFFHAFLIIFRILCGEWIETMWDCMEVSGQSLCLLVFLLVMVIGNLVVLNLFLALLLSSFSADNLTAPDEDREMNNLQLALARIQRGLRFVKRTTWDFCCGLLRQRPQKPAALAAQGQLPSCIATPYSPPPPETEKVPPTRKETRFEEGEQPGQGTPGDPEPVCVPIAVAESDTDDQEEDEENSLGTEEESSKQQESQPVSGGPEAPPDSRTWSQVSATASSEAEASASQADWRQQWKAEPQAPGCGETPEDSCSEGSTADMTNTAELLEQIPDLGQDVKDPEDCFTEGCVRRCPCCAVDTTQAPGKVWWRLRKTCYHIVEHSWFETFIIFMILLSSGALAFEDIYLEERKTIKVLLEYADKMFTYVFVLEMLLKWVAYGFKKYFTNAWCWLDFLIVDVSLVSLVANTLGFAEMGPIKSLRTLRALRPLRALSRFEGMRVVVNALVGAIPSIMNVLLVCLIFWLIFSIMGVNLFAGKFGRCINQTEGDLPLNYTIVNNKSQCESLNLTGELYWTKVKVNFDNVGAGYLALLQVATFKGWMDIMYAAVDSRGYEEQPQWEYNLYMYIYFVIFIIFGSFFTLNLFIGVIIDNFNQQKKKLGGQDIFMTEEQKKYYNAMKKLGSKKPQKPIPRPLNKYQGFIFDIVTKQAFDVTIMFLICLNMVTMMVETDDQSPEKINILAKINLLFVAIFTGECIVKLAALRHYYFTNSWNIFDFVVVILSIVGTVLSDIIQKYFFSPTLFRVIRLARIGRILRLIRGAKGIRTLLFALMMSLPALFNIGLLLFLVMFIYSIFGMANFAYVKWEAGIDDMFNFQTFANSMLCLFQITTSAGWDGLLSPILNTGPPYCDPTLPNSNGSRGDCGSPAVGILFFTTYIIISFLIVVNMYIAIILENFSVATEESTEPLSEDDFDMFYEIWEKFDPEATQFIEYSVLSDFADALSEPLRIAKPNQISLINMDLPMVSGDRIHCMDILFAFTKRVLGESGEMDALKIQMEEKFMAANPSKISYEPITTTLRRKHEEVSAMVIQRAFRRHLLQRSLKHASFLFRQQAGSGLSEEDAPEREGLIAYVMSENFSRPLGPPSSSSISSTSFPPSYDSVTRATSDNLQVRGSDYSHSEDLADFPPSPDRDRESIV
Nav 1.7, sequence (Q15858 whole entry): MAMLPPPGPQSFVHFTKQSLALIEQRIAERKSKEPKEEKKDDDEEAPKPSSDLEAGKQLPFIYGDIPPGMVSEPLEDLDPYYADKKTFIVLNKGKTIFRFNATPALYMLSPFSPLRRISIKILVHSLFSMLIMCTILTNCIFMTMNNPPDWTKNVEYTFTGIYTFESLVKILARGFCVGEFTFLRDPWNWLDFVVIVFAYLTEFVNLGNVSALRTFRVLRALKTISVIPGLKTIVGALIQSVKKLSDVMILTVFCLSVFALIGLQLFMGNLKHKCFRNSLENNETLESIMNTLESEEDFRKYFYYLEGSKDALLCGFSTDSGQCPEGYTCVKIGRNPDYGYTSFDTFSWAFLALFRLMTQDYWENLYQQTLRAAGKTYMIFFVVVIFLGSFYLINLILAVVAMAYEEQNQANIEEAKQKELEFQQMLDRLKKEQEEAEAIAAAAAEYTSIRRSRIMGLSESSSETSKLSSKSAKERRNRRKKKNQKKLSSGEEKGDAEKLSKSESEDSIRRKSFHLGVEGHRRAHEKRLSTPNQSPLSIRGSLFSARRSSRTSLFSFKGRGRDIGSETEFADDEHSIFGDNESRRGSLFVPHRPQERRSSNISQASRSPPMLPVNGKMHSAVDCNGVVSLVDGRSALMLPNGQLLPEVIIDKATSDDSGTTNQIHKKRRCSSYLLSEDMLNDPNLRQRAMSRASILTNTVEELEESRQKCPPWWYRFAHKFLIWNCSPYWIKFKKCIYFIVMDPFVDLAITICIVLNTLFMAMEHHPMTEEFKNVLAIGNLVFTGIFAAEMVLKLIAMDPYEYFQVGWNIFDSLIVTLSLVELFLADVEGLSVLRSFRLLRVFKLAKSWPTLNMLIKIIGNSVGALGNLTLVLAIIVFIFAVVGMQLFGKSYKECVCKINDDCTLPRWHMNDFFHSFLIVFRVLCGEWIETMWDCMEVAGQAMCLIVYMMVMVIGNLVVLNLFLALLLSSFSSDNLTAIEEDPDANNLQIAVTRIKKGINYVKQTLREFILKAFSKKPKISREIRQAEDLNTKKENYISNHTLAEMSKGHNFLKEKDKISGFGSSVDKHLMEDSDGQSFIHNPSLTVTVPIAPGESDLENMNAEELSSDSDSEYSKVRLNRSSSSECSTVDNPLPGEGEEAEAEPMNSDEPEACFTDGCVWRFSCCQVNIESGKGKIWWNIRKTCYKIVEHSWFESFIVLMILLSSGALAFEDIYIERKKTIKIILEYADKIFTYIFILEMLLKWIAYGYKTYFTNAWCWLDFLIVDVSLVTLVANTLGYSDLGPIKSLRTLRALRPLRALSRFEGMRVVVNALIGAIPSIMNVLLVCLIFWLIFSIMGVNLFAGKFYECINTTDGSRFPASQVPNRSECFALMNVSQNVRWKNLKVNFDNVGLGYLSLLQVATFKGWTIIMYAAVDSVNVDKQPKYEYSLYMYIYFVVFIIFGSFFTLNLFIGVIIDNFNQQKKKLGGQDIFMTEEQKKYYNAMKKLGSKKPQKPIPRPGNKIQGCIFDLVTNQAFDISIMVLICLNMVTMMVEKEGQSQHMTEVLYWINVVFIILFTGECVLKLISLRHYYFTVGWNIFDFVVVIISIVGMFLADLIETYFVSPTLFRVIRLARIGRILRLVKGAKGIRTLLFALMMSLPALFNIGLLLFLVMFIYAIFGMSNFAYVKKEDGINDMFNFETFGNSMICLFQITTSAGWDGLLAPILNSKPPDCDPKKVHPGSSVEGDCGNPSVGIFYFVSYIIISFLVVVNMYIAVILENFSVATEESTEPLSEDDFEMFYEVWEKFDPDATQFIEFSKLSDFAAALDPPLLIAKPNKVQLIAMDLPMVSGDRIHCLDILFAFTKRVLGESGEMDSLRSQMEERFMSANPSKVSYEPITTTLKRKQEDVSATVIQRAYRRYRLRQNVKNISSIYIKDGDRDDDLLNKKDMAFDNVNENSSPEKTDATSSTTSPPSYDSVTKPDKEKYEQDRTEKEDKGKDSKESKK

As for `COc1cc(-c2cccc(F)c2)c(C#N)cc1-c1nccc2cc(S(=O)(=O)Nc3ccon3)ccc12` [Example 342, 1-(2-CYANO-3′-FLUORO-5-METHOXY-[1,1′-BIPHENYL]-4-YL)-N-(ISOXAZOL-3-YL)ISOQUINOLINE-6-SULFONAMIDE], the concentration for half-maximal inhibition (IC50) (commonly the concentration needed to halve the response being measured) on Nav 1.5 is > 30 µM; at Nav 1.7, 0.122 µM.
`COc1cc(-c2cc(F)cc(F)c2)c(C#N)cc1-c1nccc2cc(S(=O)(=O)Nc3ccon3)ccc12` [Example 343, 1-(2-CYANO-3′,5′-DIFLUORO-5-METHOXY-[1,1′-BIPHENYL]-4-YL)-N-(ISOXAZOL-3-YL)ISOQUINOLINE-6-SULFONAMIDE]: the half-inhibitory concentration (IC50) on Nav 1.5 was > 30 µM; on Nav 1.7, 0.145 µM.
The matching figures for `COc1ccc(-c2cccc(C(F)(F)F)c2)cc1-c1nccc2cc(S(=O)(=O)Nc3nncs3)ccc12` [Example 344, 1-(4-METHOXY-3′-(TRIFLUOROMETHYL)-[1,1′-BIPHENYL]-3-YL)-N-(1,3,4-THIADIAZOL-2-YL)ISOQUINOLINE-6-SULFONAMIDE]: > 30 µM and 0.034 µM.
As to `COc1ccc(-c2cccc(F)c2)cc1-c1nccc2cc(S(=O)(=O)Nc3nncs3)ccc12` [Example 345, 1-(3′-FLUORO-4-METHOXY-[1,1′-BIPHENYL]-3-YL)-N-(1,3,4-THIADIAZOL-2-YL)ISOQUINOLINE-6-SULFONAMIDE], the IC50 was > 30 µM at Nav 1.5 and 0.075 µM at Nav 1.7.
On the same counts, the results for `COc1ccc(Cl)cc1-c1nccc2cc(S(=O)(=O)Nc3ncns3)ccc12` [Example 346, 1-(5-CHLORO-2-METHOXYPHENYL)-N-(1,2,4-THIADIAZOL-5-YL)ISOQUINOLINE-6-SULFONAMIDE] are > 30 µM and 0.132 µM.
For the compound `COc1ccc(-c2cccc(F)c2)cc1-c1nccc2cc(S(=O)(=O)Nc3ncns3)ccc12` [Example 347, 1-(3′-FLUORO-4-METHOXY-[1,1′-BIPHENYL]-3-YL)-N-(1,2,4-THIADIAZOL-5-YL)ISOQUINOLINE-6-SULFONAMIDE], the figures for the IC50 at Nav 1.5 and on Nav 1.7 were > 30 µM and 0.04 µM, respectively.
Regarding `COc1ccc(-c2cccc(F)c2)cc1-c1nccc2cc(S(=O)(=O)Nc3ccncn3)ccc12` [Example 348, 1-(3′-FLUORO-4-METHOXY-[1,1′-BIPHENYL]-3-YL)-N-(PYRIMIDIN-4-YL)ISOQUINOLINE-6-SULFONAMIDE], the IC50 on Nav 1.5 was > 30 µM; on Nav 1.7, 0.102 µM.
On the same counts, the results for `COc1ccc(-c2cccc(C(F)(F)F)c2)cc1-c1nccc2cc(S(=O)(=O)Nc3ccncn3)ccc12` [Example 349, 1-(4-METHOXY-3′-(TRIFLUOROMETHYL)-[1,1′-BIPHENYL]-3-YL)-N-(PYRIMIDIN-4-YL)ISOQUINOLINE-6-SULFONAMIDE] are > 30 µM and 0.038 µM.
Turning to `COc1cc(-c2ccc(F)cc2)ccc1-c1nccc2cc(S(=O)(=O)Nc3ccncn3)ccc12` [Example 350, 1-(4′-FLUORO-3-METHOXY-[1,1′-BIPHENYL]-4-YL)-N-(PYRIMIDIN-4-YL)ISOQUINOLINE-6-SULFONAMIDE], the half-maximal inhibitory concentration (IC50) at Nav 1.5 was > 30 µM; at Nav 1.7, 0.161 µM.
As to `COc1cc(-c2cccc(C(F)(F)F)c2)ccc1-c1nccc2cc(S(=O)(=O)Nc3ccncn3)ccc12` [Example 351, 1-(3-METHOXY-3′-(TRIFLUOROMETHYL)-[1,1′-BIPHENYL]-4-YL)-N-(PYRIMIDIN-4-YL)ISOQUINOLINE-6-SULFONAMIDE], the IC50 at Nav 1.5 turned out to be 26.6 µM; at Nav 1.7 it was 0.076 µM.
Turning to `COc1cc(-c2cccc(F)c2)ccc1-c1nccc2cc(S(=O)(=O)Nc3nncs3)ccc12` [Example 354, 1-(3′-FLUORO-3-METHOXY-[1,1′-BIPHENYL]-4-YL)-N-(1,3,4-THIADIAZOL-2-YL)ISOQUINOLINE-6-SULFONAMIDE 2,2,2-TRIFLUOROACETATE], the IC50 at Nav 1.5 is > 30 µM; at Nav 1.7, 0.11 µM.
As to `COc1cc(-c2cc(F)cc(F)c2)ccc1-c1nccc2cc(S(=O)(=O)Nc3nncs3)ccc12` [Example 355, 1-(3′,5′-DIFLUORO-3-METHOXY-[1,1′-BIPHENYL]-4-YL)-N-(1,3,4-THIADIAZOL-2-YL)ISOQUINOLINE-6-SULFONAMIDE 2,2,2-TRIFLUOROACETATE], the IC50 at Nav 1.5 was > 30 µM; on Nav 1.7, 0.048 µM.
The matching figures for `Cc1cc(-c2cccc(F)c2)ccc1-c1nccc2cc(S(=O)(=O)Nc3ccncn3)ccc12` [Example 358, 1-(3′-FLUORO-3-METHYL-[1,1′-BIPHENYL]-4-YL)-N-(PYRIMIDIN-4-YL)ISOQUINOLINE-6-SULFONAMIDE]: > 30 µM and 0.394 µM.
On the same counts, the results for `COc1cc(CC(C)(C)C)ccc1-c1nccc2cc(S(=O)(=O)Nc3ccncn3)ccc12` [Example 360, 1-(2-METHOXY-4-NEOPENTYLPHENYL)-N-(PYRIMIDIN-4-YL)ISOQUINOLINE-6-SULFONAMIDE] are > 30 µM and 0.513 µM.
On to `COc1cc(OCC(C)C)ccc1-c1nccc2cc(S(=O)(=O)Nc3ccncn3)ccc12` [Example 361, 1-(4-ISOBUTOXY-2-METHOXYPHENYL)-N-(PYRIMIDIN-4-YL)ISOQUINOLINE-6-SULFONAMIDE], for which the results for the half-maximal inhibitory concentration (IC50) on Nav 1.5 and at Nav 1.7 were > 30 µM and 0.463 µM, respectively.
The matching figures for `COc1nc(-c2cccc(F)c2)ccc1-c1nccc2cc(S(=O)(=O)Nc3ccncn3)ccc12` [Example 363, 1-(6-(3-FLUOROPHENYL)-2-METHOXYPYRIDIN-3-YL)-N-(PYRIMIDIN-4-YL)ISOQUINOLINE-6-SULFONAMIDE]: > 30 µM and 0.54 µM.
Take `COc1cc(-c2cc(F)cc(F)c2)c(F)cc1-c1nccc2cc(S(=O)(=O)Nc3nncs3)ccc12` [Example 364, N-(1,3,4-THIADIAZOL-2-YL)-1-(2,3′,5′-TRIFLUORO-5-METHOXY-[1,1′-BIPHENYL]-4-YL)ISOQUINOLINE-6-SULFONAMIDE]: the 50% inhibitory concentration (IC50) is > 30 µM on Nav 1.5 and 0.036 µM at Nav 1.7.
On the same counts, the results for `COc1cc(-c2ccc(F)c(F)c2)c(F)cc1-c1nccc2cc(S(=O)(=O)Nc3nncs3)ccc12` [Example 365, N-(1,3,4-THIADIAZOL-2-YL)-1-(2,3′,4′-TRIFLUORO-5-METHOXY-[1,1′-BIPHENYL]-4-YL)ISOQUINOLINE-6-SULFONAMIDE] are > 30 µM and 0.041 µM.
On the same counts, the results for `COc1cc(-c2cccc(F)c2)c(F)cc1-c1nccc2cc(S(=O)(=O)Nc3nncs3)ccc12` [Example 366, 1-(2,3′-DIFLUORO-5-METHOXY-[1,1′-BIPHENYL]-4-YL)-N-(1,3,4-THIADIAZOL-2-YL)ISOQUINOLINE-6-SULFONAMIDE] are > 30 µM and 0.048 µM.
As for `COc1cc(Cl)ccc1-c1nccc2cc(S(=O)(=O)Nc3ncns3)ccc12` [Example 368, 1-(4-CHLORO-2-METHOXYPHENYL)-N-(1,2,4-THIADIAZOL-5-YL)ISOQUINOLINE-6-SULFONAMIDE], the IC50 at Nav 1.5 was > 30 µM; at Nav 1.7 it was 0.122 µM.
On the same counts, the results for `COc1cc(-c2cccc(F)c2)ccc1-c1nccc2cc(S(=O)(=O)Nc3ncns3)ccc12` [Example 369, 1-(3′-FLUORO-3-METHOXY-[1,1′-BIPHENYL]-4-YL)-N-(1,2,4-THIADIAZOL-5-YL)ISOQUINOLINE-6-SULFONAMIDE] are > 30 µM and 0.058 µM.
The matching figures for `COc1cc(-c2cc(F)cc(F)c2)ccc1-c1nccc2cc(S(=O)(=O)Nc3ccnc(C)n3)ccc12` [Example 370, 1-(3′,5′-DIFLUORO-3-METHOXY-[1,1′-BIPHENYL]-4-YL)-N-(2-METHYLPYRIMIDIN-4-YL)ISOQUINOLINE-6-SULFONAMIDE]: > 30 µM and 0.813 µM.
As to `COc1cc(-c2cc(F)cc(F)c2)ccc1-c1nccc2cc(S(=O)(=O)Nc3cc(C)ncn3)ccc12` [Example 371, 1-(3′,5′-DIFLUORO-3-METHOXY-[1,1′-BIPHENYL]-4-YL)-N-(6-METHYLPYRIMIDIN-4-YL)ISOQUINOLINE-6-SULFONAMIDE], the IC50 on Nav 1.5 is > 30 µM; on Nav 1.7 it was 0.545 µM.
The matching figures for `N#CCOc1cc(Cl)ccc1-c1nccc2cc(S(=O)(=O)Nc3nccs3)ccc12` [Example 373, 1-(4-CHLORO-2-(CYANOMETHOXY)PHENYL)-N-(THIAZOL-2-YL)ISOQUINOLINE-6-SULFONAMIDE 2,2,2-TRIFLUOROACETATE]: > 30 µM and 0.153 µM.
On the same counts, the results for `N#CCOc1cc(C(F)(F)F)ccc1-c1nccc2cc(S(=O)(=O)Nc3nccs3)ccc12` [Example 374, 1-(2-(CYANOMETHOXY)-4-(TRIFLUOROMETHYL)PHENYL)-N-(THIAZOL-2-YL)ISOQUINOLINE-6-SULFONAMIDE] are > 30 µM and 0.309 µM.
With `N#CCOc1ccccc1-c1nccc2cc(S(=O)(=O)Nc3nccs3)ccc12` [Example 375, 1-(2-(CYANOMETHOXY)PHENYL)-N-(THIAZOL-2-YL)ISOQUINOLINE-6-SULFONAMIDE 2,2,2-TRIFLUOROACETATE], the 50% inhibitory concentration (IC50) on Nav 1.5 is > 30 µM; on Nav 1.7, 0.544 µM.
Take `COc1cc(C(F)(F)F)ccc1-c1ncc(F)c2cc(S(=O)(=O)Nc3ncns3)ccc12` [Example 392, 4-FLUORO-1-(2-METHOXY-4-(TRIFLUOROMETHYL)PHENYL)-N-(1,2,4-THIADIAZOL-5-YL)ISOQUINOLINE-6-SULFONAMIDE]: the concentration for half-maximal inhibition (IC50) was > 30 µM at Nav 1.5 and 0.111 µM on Nav 1.7.
On the same counts, the results for `COc1ccccc1-c1ncc(F)c2cc(S(=O)(=O)Nc3ncns3)ccc12` [Example 393, 4-FLUORO-1-(2-METHOXYPHENYL)-N-(1,2,4-THIADIAZOL-5-YL)ISOQUINOLINE-6-SULFONAMIDE] are > 30 µM and 0.304 µM.
